This passage reports IC50 results from patent publication US20250388553A1 (Incyte Corporation, priority 2018, published 2025).

For orientation: IC50 means the concentration needed to halve the response being measured.

Counter-ions that a name gives are not always drawn. Like-named read-outs stand apart in the source and are kept apart here. Bounds are passed on as bounds.

For experiment [1], the target named is PI3Kδ (p1106/p85a) Recombinant Human Protein (Homo sapiens (Human), UniProt O00329). Description: PI3Kδ scintillation proximity assay. It counts as biochemical. As to conditions: scintillation proximity assay, recombinant human PI3Kδ. In general terms: Scintillation proximity formats need no separation of bound from free tracer.
In experiment [2] the target is PI3Kγ (p110γ) Recombinant Human Protein (Homo sapiens (Human), UniProt P48736). Description: PI3K-γ scintillation proximity assay. Format: biochemical. The settings on record: scintillation proximity assay, recombinant human p110γ.
Experiment [3] concerns Phosphorylated Ribosomal Protein S6 (RPS6) in THP-1 cells. Description: THP-1 RPS6 ELISA assay. Format: cell-based, Human. As to conditions: THP-1 cells, 10 nM MCP-1, phospho-RPS6 ELISA, read-out: PI3Kγ_THP1_RPS6_ELISA IC50. The text has this:
Example A. THP-1 RPS6 ELISA Assay
To measure the Phosphorylated Ribosomal Protein S6 (RPS6) in cell lysates, THP-1 cells (Human Acute Monocytic Leukemia) are purchased from ATCC (Manassas, VA) and maintained in RPMI with 10% FBS (Gibco/Life Technologies, Carlsbad, CA). For the assay, THP-1 cells are serum starved overnight in RPMI, then plated in RPMI (2×10^5 cells/well in […]) into 96-well flat-bottom tissue culture treated plates (Corning, Corning, NY), in the presence or absence of a concentration range of test compounds. Covered plates are incubated for 2 hours at 37° C., 5% CO2 then treated with or without 10 nM MCP-1(MYBioSource, San Diego, CA) for 15 minutes at 37° C., 5% CO2. Plates are centrifuged at 1600 RPM and supernatants are removed. Cells are lysed in Lysis Buffer (Cell Signaling, Danvers, MA) with Protease Inhibitor (Calbiochem/EMD, Germany), PMSF (Sigma, St Louis MO), HALTS (Thermo Fisher, Rockford, IL) for 30 min on wet ice. Cell lysates are frozen at −80° C. before testing. The lysates are tested in the Human/Mouse/Rat Phospho-RPS6 ELISA (R&D Systems, Inc. Minn, MN). The plate is measured using a microplate reader (SpectraMax M5—Molecular Devices, LLC Sunnyvale, CA) set to 450 nm with a wavelength correction of 540. IC50 determination is performed by fitting the curve of inhibitor percent inhibition versus the log of the inhibitor concentration using the GraphPad Prism 5.0 software.
The compounds of the Examples were tested in the assays described in Examples A, B and C and found to have the IC50s are shown in Tables A1, A2, A3 and A4.
In general terms: In an ELISA, binding on a coated surface is turned into a signal by an enzyme label.

Sequence of PI3Kδ (p1106/p85a) Recombinant Human Protein (O00329 whole entry): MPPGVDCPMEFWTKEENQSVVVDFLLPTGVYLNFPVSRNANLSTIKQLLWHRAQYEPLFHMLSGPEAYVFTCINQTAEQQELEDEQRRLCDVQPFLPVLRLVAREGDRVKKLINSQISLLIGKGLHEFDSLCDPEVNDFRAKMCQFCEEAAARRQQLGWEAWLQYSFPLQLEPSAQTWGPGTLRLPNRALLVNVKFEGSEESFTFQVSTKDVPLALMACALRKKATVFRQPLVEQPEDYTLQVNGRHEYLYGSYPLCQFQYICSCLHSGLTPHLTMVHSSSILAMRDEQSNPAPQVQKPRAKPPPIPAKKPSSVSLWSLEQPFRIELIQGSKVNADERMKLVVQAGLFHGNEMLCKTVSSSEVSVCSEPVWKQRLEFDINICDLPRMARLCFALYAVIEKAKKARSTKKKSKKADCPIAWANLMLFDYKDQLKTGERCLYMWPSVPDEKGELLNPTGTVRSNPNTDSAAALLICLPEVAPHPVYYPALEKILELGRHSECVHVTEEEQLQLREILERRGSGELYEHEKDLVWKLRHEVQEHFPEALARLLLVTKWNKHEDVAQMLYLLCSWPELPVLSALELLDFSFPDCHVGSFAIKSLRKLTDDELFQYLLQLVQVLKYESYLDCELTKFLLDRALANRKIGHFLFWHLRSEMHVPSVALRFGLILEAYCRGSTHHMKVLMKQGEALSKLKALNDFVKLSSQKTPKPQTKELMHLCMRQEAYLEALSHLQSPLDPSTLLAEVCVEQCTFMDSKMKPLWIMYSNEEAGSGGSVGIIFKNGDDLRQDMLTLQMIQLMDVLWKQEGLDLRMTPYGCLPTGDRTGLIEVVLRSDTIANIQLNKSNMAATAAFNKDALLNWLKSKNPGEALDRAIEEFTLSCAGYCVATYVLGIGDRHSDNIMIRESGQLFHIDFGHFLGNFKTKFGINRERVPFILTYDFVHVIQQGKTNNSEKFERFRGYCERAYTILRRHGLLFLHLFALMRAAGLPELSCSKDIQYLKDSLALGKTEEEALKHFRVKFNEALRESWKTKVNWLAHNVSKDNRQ
Sequence of PI3Kδ (p1106/p85a) Recombinant Human Protein (P27986 whole entry partner): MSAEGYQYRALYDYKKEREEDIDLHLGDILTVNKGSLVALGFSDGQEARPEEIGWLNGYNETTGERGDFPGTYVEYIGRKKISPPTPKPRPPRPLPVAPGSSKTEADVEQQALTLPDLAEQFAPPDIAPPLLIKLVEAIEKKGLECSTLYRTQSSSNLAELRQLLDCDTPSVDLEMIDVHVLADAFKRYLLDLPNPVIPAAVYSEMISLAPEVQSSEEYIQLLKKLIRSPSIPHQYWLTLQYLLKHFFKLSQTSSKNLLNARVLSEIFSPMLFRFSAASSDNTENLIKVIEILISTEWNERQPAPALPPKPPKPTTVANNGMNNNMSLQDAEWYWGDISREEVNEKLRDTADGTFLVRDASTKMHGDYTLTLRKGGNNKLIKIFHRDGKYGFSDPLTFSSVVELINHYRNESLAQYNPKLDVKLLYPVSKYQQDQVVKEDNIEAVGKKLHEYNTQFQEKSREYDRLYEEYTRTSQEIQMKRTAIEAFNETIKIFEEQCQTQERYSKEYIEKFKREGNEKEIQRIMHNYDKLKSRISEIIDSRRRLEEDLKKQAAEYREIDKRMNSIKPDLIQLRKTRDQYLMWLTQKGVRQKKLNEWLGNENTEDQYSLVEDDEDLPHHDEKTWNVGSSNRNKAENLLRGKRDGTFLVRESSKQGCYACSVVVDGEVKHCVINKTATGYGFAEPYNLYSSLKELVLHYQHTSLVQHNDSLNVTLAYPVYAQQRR
Sequence of PI3Kγ (p110γ) Recombinant Human Protein (P48736 whole entry): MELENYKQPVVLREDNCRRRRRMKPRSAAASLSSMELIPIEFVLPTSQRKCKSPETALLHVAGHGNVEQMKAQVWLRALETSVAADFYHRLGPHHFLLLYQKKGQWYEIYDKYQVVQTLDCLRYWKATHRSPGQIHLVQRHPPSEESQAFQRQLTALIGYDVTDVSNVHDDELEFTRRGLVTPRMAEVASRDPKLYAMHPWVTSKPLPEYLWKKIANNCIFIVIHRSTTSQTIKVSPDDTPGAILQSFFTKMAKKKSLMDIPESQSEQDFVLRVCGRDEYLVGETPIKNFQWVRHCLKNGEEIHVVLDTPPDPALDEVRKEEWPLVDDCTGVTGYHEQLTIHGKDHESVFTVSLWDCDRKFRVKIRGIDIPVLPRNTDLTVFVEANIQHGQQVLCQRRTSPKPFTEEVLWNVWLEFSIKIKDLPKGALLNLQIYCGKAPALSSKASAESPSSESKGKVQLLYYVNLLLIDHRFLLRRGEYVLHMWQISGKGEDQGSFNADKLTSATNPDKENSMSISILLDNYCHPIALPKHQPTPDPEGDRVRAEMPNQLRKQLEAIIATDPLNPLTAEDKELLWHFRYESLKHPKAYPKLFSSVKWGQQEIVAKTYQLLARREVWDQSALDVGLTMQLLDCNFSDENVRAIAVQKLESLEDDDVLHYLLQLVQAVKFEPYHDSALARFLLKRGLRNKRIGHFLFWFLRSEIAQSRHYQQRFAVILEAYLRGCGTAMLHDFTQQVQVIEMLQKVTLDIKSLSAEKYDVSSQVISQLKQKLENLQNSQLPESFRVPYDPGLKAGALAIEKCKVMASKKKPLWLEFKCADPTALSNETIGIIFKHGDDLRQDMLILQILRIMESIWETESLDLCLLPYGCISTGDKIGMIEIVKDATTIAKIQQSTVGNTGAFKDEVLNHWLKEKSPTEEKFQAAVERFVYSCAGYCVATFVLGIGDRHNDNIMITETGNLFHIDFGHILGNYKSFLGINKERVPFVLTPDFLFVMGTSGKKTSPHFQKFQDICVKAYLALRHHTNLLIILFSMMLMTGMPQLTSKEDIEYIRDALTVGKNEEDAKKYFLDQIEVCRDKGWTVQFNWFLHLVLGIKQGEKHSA

As to `Cc1ccc(C(O)(C(N)=O)C(F)(F)F)cc1-c1cnc(N)c(N2CCN(C(C)(C)C)C(=O)C2)n1` (stereo not shown) [Example 113, 2-(3-(5-amino-6-(4-tert-butyl-3-oxopiperazin-1-yl)pyrazin-2-yl)-4-methylphenyl)-3,3,3-trifluoro-2-hydroxypropanamide trifluoroacetate], the IC50 in experiment [1] (Table A4) is 100 to 500 nM; in experiment [2] (Table A4), below 100 nM; in experiment [3] (Homo sapiens, Table A4), 100 to 500 nM.

With `Cc1ccc(C(O)(C(N)=O)C(F)(F)F)cc1-c1cnc(N)c(-c2cnn(CC3CC3)c2)n1` (stereo not shown) [Example 86, 2-(3-(5-amino-6-(1-(cyclopropylmethyl)-1H-pyrazol-4-yl)pyrazin-2-yl)-4-methylphenyl)-3,3,3-trifluoro-2-hydroxypropanamide trifluoroacetate], the IC50 was below 100 nM in experiment [1] (Table A3); below 100 nM in experiment [2] (Table A3); below 100 nM in experiment [3] (Homo sapiens, Table A3).

On to `Cc1ccc(C(O)(C(N)=O)C(F)(F)F)cc1-c1cnc(N)c(C(=O)N[C@H]2CC[C@H](C(C)(C)O)CC2)n1` (stereo partly shown) [Example 19, 3-amino-6-(5-(3-amino-1,1,1-trifluoro-2-hydroxy-3-oxopropan-2-yl)-2-methylphenyl)-N-((1r,4r)-4-(2-hydroxypropan-2-yl)cyclohexyl)pyrazine-2-carboxamide trifluoroacetate], for which the IC50 in experiment [1] (Table A1), in experiment [2] (Table A1) and in experiment [3] (Table A1) was below 100 nM each time.

In the case of `Cc1ccc(C(O)(C(N)=O)C(F)(F)F)cc1-c1cnc(N)c(C2CN(S(=O)(=O)c3cnn(C)c3)C2)n1` (single isomer, unassigned) [Example 107, 2-(3-(5-Amino-6-(1-((1-methyl-1H-pyrazol-4-yl)sulfonyl)azetidin-3-yl)pyrazin-2-yl)-4-methylphenyl)-3,3,3-trifluoro-2-hydroxypropanamide, trifluoroacetate Salt], the IC50 in experiment [3] (Homo sapiens, Table A4) lay within 500 to 1000 nM.

Regarding `Cc1ncc(-c2nc(-c3cc(C(O)(C(N)=O)C(F)(F)F)ccc3C)cnc2N)s1` (stereo not shown) [Example 72, 2-(3-(5-amino-6-(2-methylthiazol-5-yl)pyrazin-2-yl)-4-methylphenyl)-3,3,3-trifluoro-2-hydroxypropanamide trifluoroacetate], the IC50 in experiment [3] (Homo sapiens, Table A3) is below 100 nM.

In the case of `CCOC(=O)C1CC(c2nc(-c3cc(C(O)(C(N)=O)C(F)(F)F)ccc3C)cnc2N)C1` (single isomer, unassigned) [Example 109, Ethyl 3-(3-amino-6-(5-(3-amino-1,1,1-trifluoro-2-hydroxy-3-oxopropan-2-yl)-2-methylphenyl)pyrazin-2-yl)cyclobutane-1-carboxylate], the figures for the IC50 in experiment [1] (Table A4) and in experiment [3] (Table A4) were 100 to 500 nM and above 1000 nM, respectively.

On to `Cc1ccc(C(O)(C(N)=O)C(F)(F)F)cc1-c1cnc(N)c(C#Cc2cn3ccnc3cn2)n1` (stereo not shown) [Example 68, 2-(3-(5-amino-6-(imidazo[1,2-a]pyrazin-6-ylethynyl)pyrazin-2-yl)-4-methylphenyl)-3,3,3-trifluoro-2-hydroxypropanamide], for which the IC50 in experiment [1] (Table A2) and in experiment [2] (Table A2) was below 100 nM in each case.

Consider `Cc1ccc(C(O)(C(N)=O)C(F)F)cc1-c1cnc(N)c(C(=O)NCCC2CCOC2)n1` (stereo not shown) [Example 37, 3-amino-6-(5-(1-amino-3,3-difluoro-2-hydroxy-1-oxopropan-2-yl)-2-methylphenyl)-N-(2-(tetrahydrofuran-3-yl)ethyl)pyrazine-2-carboxamide], for which the IC50 in experiment [1] (Table A1) and in experiment [2] (Table A1) was below 100 nM in each case.

On to `Cc1ccc(C)c(N2CCN(c3nc(-c4cc(C(O)(C(N)=O)C(F)(F)F)ccc4C)cnc3N)CC2)c1` (stereo not shown) [Example 119, 2-(3-(5-amino-6-(4-(2,5-dimethylphenyl)piperazin-1-yl)pyrazin-2-yl)-4-methylphenyl)-3,3,3-trifluoro-2-hydroxypropanamide trifluoroacetate], for which the IC50 in experiment [1] (Table A4) is 100 to 500 nM; in experiment [2] (Table A4) it was below 100 nM.

`CNC(=O)C(O)(c1ccc(C)c(-c2cnc(N)c(-c3cnn(C)c3)n2)c1)C(F)(F)F` (stereo not shown) [Example 96, 2-(3-(5-Amino-6-(1-methyl-1H-pyrazol-4-yl)pyrazin-2-yl)-4-methylphenyl)-3,3,3-trifluoro-2-hydroxy-N-methylpropanamide]: the IC50 in experiment [1] (Table A3) was 100 to 500 nM; in experiment [2] (Table A3) it was below 100 nM.

With `CC(=O)NCC(O)(c1ccc(C)c(-c2cnc(N)c(-c3cn[nH]c3)n2)c1)C(F)(F)F` (stereo not shown) [Example 105, N-(2-(3-(5-amino-6-(1H-pyrazol-4-yl)pyrazin-2-yl)-4-methylphenyl)-3,3,3-trifluoro-2-hydroxypropyl)acetamide trifluoroacetate], the IC50 in experiment [1] (Table A3) and in experiment [2] (Table A3) was below 100 nM in each case.

For the compound `Cc1ccc(C(O)(C(N)=O)C(F)(F)F)cc1-c1cnc(N)c(C#Cc2ccccn2)n1` (stereo not shown) [Example 55, 2-(3-(5-amino-6-(pyridin-2-ylethynyl)pyrazin-2-yl)-4-methylphenyl)-3,3,3-trifluoro-2-hydroxypropanamide], the IC50 in experiment [1] (Table A2) and in experiment [2] (Table A2) was below 100 nM throughout.

In the case of `Cc1ccc(C(O)(C(N)=O)C(F)(F)F)cc1-c1cnc(N)c(C#CC2CCOCC2)n1` (stereo not shown) [Example 63, 2-(3-(5-amino-6-((tetrahydro-2H-pyran-4-yl)ethynyl)pyrazin-2-yl)-4-methylphenyl)-3,3,3-trifluoro-2-hydroxypropanamide], the IC50 in experiment [1] (Table A2) and in experiment [2] (Table A2) was below 100 nM in each case.

Regarding `CCNC(=O)c1nc(-c2cc(C(O)(C(N)=O)C(F)F)ccc2C)cnc1N` (stereo not shown) [Example 32, 3-amino-6-(5-(1-amino-3,3-difluoro-2-hydroxy-1-oxopropan-2-yl)-2-methylphenyl)-N-ethylpyrazine-2-carboxamide], the IC50 in experiment [1] (Table A1) and in experiment [2] (Table A1) was below 100 nM each time.

Regarding `Cc1ccc(C(O)(C(N)=O)C(F)(F)F)cc1-c1cnc(N)c(C(=O)NCC(O)C(F)(F)F)n1` (single isomer, unassigned) [Example 43B, 3-amino-6-(5-(3-amino-1,1,1-trifluoro-2-hydroxy-3-oxopropan-2-yl)-2-methylphenyl)-N-(3,3,3-trifluoro-2-hydroxypropyl)pyrazine-2-carboxamide], the IC50 in experiment [1] (Table A1) and in experiment [2] (Table A1) was below 100 nM each time.

As to `Cc1ccc(C(O)(C(N)=O)C(F)(F)F)cc1-c1cnc(N)c(C(=O)NCC2(C#N)CCC2)n1` (stereo not shown) [Example 16, 3-amino-6-(5-(3-amino-1,1,1-trifluoro-2-hydroxy-3-oxopropan-2-yl)-2-methylphenyl)-N-((1-cyanocyclobutyl)methyl)pyrazine-2-carboxamide trifluoroacetate], the IC50 in experiment [1] (Table A1) and in experiment [2] (Table A1) was below 100 nM in each case.

In the case of `Cc1ccc(C(O)(C(N)=O)C(F)F)cc1-c1cnc(N)c(C(=O)NC2CCOCC2)n1` (stereo not shown) [Example 36, 3-amino-6-(5-(1-amino-3,3-difluoro-2-hydroxy-1-oxopropan-2-yl)-2-methylphenyl)-N-(tetrahydro-2H-pyran-4-yl)pyrazine-2-carboxamide], the IC50 in experiment [1] (Table A1) and in experiment [2] (Table A1) was below 100 nM each time.

As for `Cc1ccc(C(O)(C(N)=O)C(F)(F)F)cc1-c1cnc(N)c(N2CCN(c3ccccc3)CC2)n1` (stereo not shown) [Example 116, 2-(3-(5-amino-6-(4-phenylpiperazin-1-yl)pyrazin-2-yl)-4-methylphenyl)-3,3,3-trifluoro-2-hydroxypropanamide trifluoroacetate], the 50% inhibitory concentration (IC50) is 100 to 500 nM in experiment [1] (Table A4) and below 100 nM in experiment [2] (Table A4).
